Results reported in a melting point compilation (Tetko et al.; mined from patent text by program, amines drawn as free bases though some values may be those of a salt).

SMILES	melting point [°C]
C#CCOc1ccc(C(=O)C=Cc2ccc(C#N)cc2)c(O)c1	188 to 190
COc1cn(-c2ccc(N3CCOCC3=O)cc2F)nc(-c2ccnn2-c2ccccc2)c1=O	193 to 195
C=CCN1CCN(CCC(=O)N2c3ccccc3C(=O)Nc3cccnc32)CC1	205 to 207
Cc1nnc(-c2ccnc(NC(=O)NCc3ccccn3)c2)o1	202 to 203
CC(C)CC(CC1CCCCC1)Cn1ccnc1 (stereo not drawn)	119 to 120
O=C1CCc2cc(C(=O)[C@H]3C[C@H]3C(=O)O)ccc2N1 (relative stereo)	190 to 194
O=C(NC1CCCCC1)N1CCc2cc(S(=O)(=O)N3CC(c4ccccc4)NC3=O)ccc21 (stereo not drawn)	273 to 275
Clc1ccc(N2CCN(c3ccccn3)CC2)nn1	195
CCCCCN1CC[C@@H](c2ccc(Cl)cc2)[C@H](CO)C1 (racemic)	125 to 128
BrCc1ccc2nc(-c3cccs3)ccc2c1	95
NC(=O)NCc1ccc2ccn(C3CCN(CCc4ccc(F)cc4)CC3)c2c1	172 to 173
CC1OC(n2cnc3c(Nc4ccccc4)ccnc32)C(O)C1O (stereo not drawn)	219
O=C(O)CN(CC(=O)O)CC(CO)C(=O)O (stereo not drawn)	195
c1ccc(-c2cncc(CN3CCN(c4ccccc4)CC3)c2)cc1	83 to 85
O=C1c2ccc(Cl)cc2CN2C(=NO)CCC12 (stereo not drawn)	249 to 252
CC(=O)C1C(=O)N(C(=O)Nc2ccccc2)c2ccccc21 (stereo not drawn)	171 to 173
CCCCCc1cnc(-c2ccc(N=C=S)cc2)nc1	46
CCOC(=O)c1ccc(N(C(C)=O)C(=O)c2ccc(C(=O)C(C)(C)C)cc2)cc1	91 to 94
Cc1ccc2c(c1)CCn1ccnc1C2=C1CCN(CCc2ccc(O)cc2)CC1	176
COc1ccc2c(C(=O)c3ccc(OC4CCCC4N4CCCCC4)cc3)c(-c3ccc(OCCN4CCCC4)cc3)sc2c1 (stereo not drawn)	68 to 72
O=C(CCCC(Cc1cccc2ccccc12)C(=O)O)c1ccccc1 (stereo not drawn)	134 to 136
O=[N+]([O-])c1cccnc1Nc1ccc2c(c1)OCO2	146 to 148
COC(=O)c1cccnc1NC(=O)C(C)CS (stereo not drawn)	50 to 52

SMILES	melting point [°C]
CC(C)(C)c1cc(-c2nn(Cc3cccc(C(F)(F)F)c3)c3ncccc23)cc(C(C)(C)C)c1O	160 to 163
Brc1ccn2nc(Br)nc2c1	183 to 184
Cc1c(C)n(CCc2ccccc2)c(C)c(C(=O)Nc2ccccc2)c1=O	191 to 193
CN1C(=O)C(NC(=O)Nc2cccc(F)c2)N=C(c2ccccc2)c2ccccc21 (stereo not drawn)	252 to 254
CCCCC(=O)Nc1ncc(Br)c(C)c1[N+](=O)[O-]	134 to 135
CCCCCCC(c1cccc(C(=O)NC(c2ccccc2)c2ccccc2)c1)c1nnn[nH]1 (stereo not drawn)	198 to 200
Nc1nc(Cl)cnc1-c1cccc(Cl)c1Cl	179 to 181
N#CC(N=Cc1ccc([N+](=O)[O-])cc1)=C(Cl)Cl	171 to 174
CCC(=O)N1CCC(NC(=O)Nc2ccc(Cl)cc2)CC1	225 to 226
Oc1c(CN2CCCC2)cc(Nc2ccnc3cc(C(F)(F)F)ccc23)cc1CN1CCCC1	56 to 58
CC1(C)CC(=O)CC(C)(P(=O)(O)O)C1 (stereo not drawn)	167 to 168
C#CCOC1(C(F)(F)F)CN(C)C(=O)Nc2ccc(Cl)cc21 (stereo not drawn)	230 to 232
O=C1Cc2c(cccc2C(=O)O)Sc2ccccc21	230 to 232
COCCOc1ccc(CCNC(=O)/C=C/c2cccs2)cc1S(=O)(=O)NC(=S)NC(C)C	101
CCN(CC)c1ccc(NC(=O)N(C[C@@H]2CCC[C@H](CN(C(=O)Nc3ccc(N(CC)CC)cc3)C3CCCCC3)C2)C2CCCCC2)cc1	170 to 172
Cc1c(-c2ccc(C[C@H](NC(=O)c3c(Cl)cccc3Cl)C(=O)O)cc2)c(=O)n(C)c(=O)n1C	225 to 227
CN1CC(CNC(=N)NC(=O)c2cccnc2)CC2c3cccc4c3c(cn4C)CC21 (stereo not drawn)	207 to 209
O=C(CI)NCCSC=CSCCNC(=O)CI	129
COc1ccc2c(c1)C(=O)N(CCCNCCCN1C(=O)c3cc(OC)ccc3C(C)(C)C1=O)C(=O)C2(C)C	151 to 152
CC(=O)C(=O)NC(=O)[C@@H](N)Cc1ccccc1	138 to 140
CN1CCCC1=NC(=O)Nc1ccc(C(F)(F)F)cc1	128 to 131
c1ccc(-c2ccc3nncn3n2)nc1	191 to 192
C[C@@H](n1cnc2ncccc2c1=O)[C@](O)(Cn1cncn1)c1ccc(F)cc1F	210 to 211

SMILES	melting point [°C]
CNCC(O)c1ccc(Cl)cc1 (stereo not drawn)	84 to 86
OCc1cnc(Oc2ccccc2)s1	50
CC(C)(C)NC(=O)C(Cc1ccc(OCc2ccccc2)cc1)NC(=O)c1ccc(C(C)(C)C)cc1 (stereo not drawn)	124 to 131
C#Cc1ccnc(NC(C)C)n1	84 to 85
O=C(Nc1ccc2ccc(Oc3ccccc3)nc2n1)c1ccsc1	95
CC1=C(OCC(C)C)CCC(C)(C)C1(O)C[Si](C)(C)C (stereo not drawn)	50
COC(=O)CC(C)C(=O)c1ccc(O)cc1 (stereo not drawn)	89 to 91
CC(C)(C)OC(=O)N1CCC(c2ccc(N3C[C@H](COS(C)(=O)=O)OC3=O)cc2F)CC1	163 to 165
C[C@@H]1CCC[C@H](C)N1CCCNC(=O)CN1C(=O)CCC1(C)C	86 to 87
CC(=O)N1c2ccccc2Sc2cc(F)ccc21	125
N#CC(CC(=O)O)(c1ccc(F)cc1)c1ccc(F)cc1	165 to 166
COc1ccc(C(=O)N2C(=O)CCC2CCC(=O)OCc2ccccc2)cc1 (stereo not drawn)	80 to 83
COC(=O)c1cccc2c1OCO2	55 to 57
Cc1c(F)c(N2CCNCC2)cc2c1c(=O)c(C(=O)O)cn2C1CC1	226 to 228
C/C(=C\c1ccc(OCCN2CCOCC2)cc1)c1ccc2c(c1)SC(C)(C)S2	90 to 91
O=S(=O)(On1nnc2ccc(Cl)cc21)c1ccc(Cl)cc1	125 to 127
Cc1nccn1-c1nc(-c2ccc(Cl)cc2)c(CCO)o1	159 to 160
CCCn1c(=O)c([N+](=O)[O-])c2n(c1=O)CCS2	189 to 191
CC(C)c1cccc(C(C)C)c1NC(=O)[C@H](C)N(C)C(=O)OC(C)(C)C	108 to 110
CC(C)Nc1ncc2ccc(=O)n(C)c2n1	148 to 149
COC(=O)NCCc1cccc(C(=O)C=CN(C)C)c1	95 to 97
CCOC(=O)NN(C)c1ccc(-c2ccc(F)cc2)nn1	160 to 161
O=[N+]([O-])c1cccc(C(O)CN2CCNC2=S)c1 (stereo not drawn)	163

Second part, the compound after the results:

melting point [°C]	SMILES
112 to 113	COc1cccc(CCC(=O)O)c1OCCCc1cn(-c2ccc(C(F)(F)F)cn2)nc1C(C)C
98 to 105	COC(=O)c1ccc(S(C)(=O)=O)c(C=O)c1Cl
150	CC(C)(C)OC(=O)NCC(=O)Oc1cccc(-c2cn3c(n2)sc2ccccc23)c1
263 to 265	CCN1C(=O)C(C)(C)c2cc(-c3nc4ccccc4[nH]3)ccc21
86 to 87	CCOC(=O)Cc1ccc(OCc2nc(-c3ccccc3)oc2C)c(OC)c1
75 to 78	COC(=O)C(C)N(C(=O)CCl)c1c(C)cccc1Cl (stereo not drawn)
265	CN(C)c1ccc2nc(N)c(C#N)c(NCc3ccccc3)c2c1
165 to 167	CCOC(=O)CN1CCN(C(C)(C)C=CC(=O)Nc2cc3c(Nc4ccc(F)c(Cl)c4)ncnc3cc2OCC2CC2)CC1
127	COC(=O)c1ccc2cc(C=O)ccc2c1
178	COC(=O)C1CCCN1S(=O)(=O)c1ccc(Cl)c(COc2cccn3c(C(C)=O)c(C)nc23)c1Cl (stereo not drawn)
128 to 130	CCC(C)(C)c1ccc(OCCCC(=O)Nc2ccc(OC)c(NC(=O)CC(=O)C3(C)COC(C)(C)OC3)c2)c(C(C)(C)CC)c1
242 to 243	COc1ccc2cc3ncc(C#N)c(Cl)c3cc2c1
170 to 171	CCn1ncc2c3noc(-c4cccc(OC)c4)c3cnc21
179 to 180	C#CCc1c(C)nc2c(OCc3c(C)cccc3NC(=O)OC)cccn12
160 to 161	N#Cc1cnn(-c2ccc(Cl)c(Cl)c2Cl)c1N1CCCC1=O
225 to 230	COc1cc2c(C)c(C#N)c(SC)nc2cc1OC(C)=O
108 to 109	Cc1c(C)c2c(c(C)c1N)CC(C)(CSCCO)O2 (stereo not drawn)

melting point [°C]	SMILES
252 to 253	CCOC(=O)c1cn(-c2nc3ccccc3[nH]2)cn1
176 to 177	Cc1cc(Cl)ccc1NC(=S)Nc1ncccc1OCc1c(F)cccc1Cl
> 300	Cc1[nH]c(=O)c2cc3nc(-c4ccncc4)[nH]c3cc2c1C
243 to 244	CC(=O)N1CC=C(c2cc3c(cc2F)c(=O)c2c(=O)[nH]sc2n3C2CC2)CC1
220 to 222	Cc1c(C(C)O)cc(C(C)C)c(-c2ccc(O)cc2)c1Cl (stereo not drawn)
189	CCn1cnc2c(Nc3cccc(C#N)c3)nc(Cl)nc21
74 to 75	COC(=O)c1cccc(O)c1C
198 to 204	COc1cc(OC)cc(N2Cc3cnc(SC)nc3N=C2N)c1
98 to 100	C=CCN(C)c1nc(Cc2ccc(OC)c(OC)c2)nc2sc(C#N)c(C)c12
129 to 130	CC(C)NC(=O)c1nc(-c2ccccc2F)c(-c2ccc(=O)n(C(C)C)n2)s1
184	O=C(O)Cc1nn(Cc2nc3cc(O)cc(O)c3s2)c(=O)c2ccccc12
112	Cc1ccccc1-c1cc(Cl)ncc1C#N
195 to 196	Cc1sc2cc(CO)ccc2c1C(=O)O
140 to 142	CCOC(=O)CC(=O)c1cc(F)c(N2CCC(N)C2)nc1Nc1ccc(F)cc1F (stereo not drawn)
193 to 194	N#CCCNC(=O)c1cccc(-c2ccc3c(n2)C(Oc2ccc(Cl)cc2Cl)CC3)c1 (stereo not drawn)
166 to 168	CC(C)c1ccc2c(c1)c(SC1CCCCC1)c(CC(C)(C)C(=O)O)n2Cc1ccc(Cl)cc1
150 to 152	COC(=O)C1=C(C)NC2=C(C(=O)NCC2)C1c1ccc(F)c(Br)c1 (stereo not drawn)
